Laboratory results reported in patent publication US20260335278A1, “PHYTOCHEMICAL FORMULATIONS FOR TREATING STRESS AND ANXIETY” (GBS GLOBAL BIOPHARMA, INC., priority 2022, published 2026).
“Also recorded” adds a separate entry of the source.

Legend:
Type in all cases: in vivo
[1] = test system: zebrafish larvae; assay: Light/Dark Stress Response (5 min alternating pulses of dark and light for 30 min); design: key to Light/Dark Stress Response: +: statistically significant increase; −−: statistically significant decrease
Experimental: (§1) The validation process for the phytochemicals derived from Piper methysticum, other Piper plant family members, and non-Piper medicinal plants and fungi includes testing the selected phytochemical drug candidates as singles, doubles, and triples in two complementary zebrafish models of stress and anxiety. These two complementary assays are the Light/Dark Stress Response test that is illustrated in FIG. 5 (after the 90 min study of the effect of the compounds and mixtures on Baseline Activity) and the Thigmotaxis assay, as illustrated in FIG. 61A and FIG. 61B, which is also known as the wall flower effect, like the social anxiety of humans. Zebrafish larvae show a clear and distinct pattern of swimming in response to rapidly alternating light and dark conditions in the Light/Dark Response testing, which trigger a flight or fight response and darting behavior indicative of great stress and anxiety. The Light/Dark testing uses a control group to automatically track, using an automatic tracking device, the larval behavior in response to dark to light conditions. The thigmotaxis assay also uses automatic tracking and appropriate controls. In multiple embodiments additional Zebrafish larvae are given various concentrations of the selected phytochemicals from Table 1 for tracking Light/Dark Responses or Thigmotactic behavioral changes in the treated zebrafish larvae. Table 2A and Table 2B summarize the results from both assays when the individual phytochemicals are exposed to the: Baseline Activity (90 minutes in the light), Light/Dark Stress Response (5 min alternating pulses of dark and light for 30 min.), and Thigmotaxis Activity (% of time in the light center of the chamber (anxiety inducing) versus % of time near the dark (soothing) wall).
(§2) The present invention includes a process to discover new pharmaceutical medicines for the treatment of stress, anxiety and anxiety-related disorders in a human. The preclinical testing included the effects of these 14 individual phytochemicals and 300 ratio-controlled mixtures of these phytochemicals in assays measuring the behavioral stress response patterns of zebrafish larvae. Larval behavior is assessed with at least one functional assay of stress or anxiety following acute exposure to each phytochemical sample formulated. Stereotypical basal activity patterns of zebrafish will be assessed to determine the potential side effects of the phytochemical samples in a concentration dependent manner for each compound on two zebrafish models of stress and anxiety: 1) the Light/Dark Stress Response (5 min alternating pulses of light and dark) in small to med well plates (96-48 well plates), and 2) Thigmotaxis assays in large well plates with 50% of the swimming surface colored dark around the margins of the well in large (24-12 well plates) will be assessed for their efficacy in testing the phytochemicals.
(§3) The discovery methods of the present invention include testing the effects of up to 20 phytochemicals and 40 mixtures of the phytochemicals on behavioral stress response patterns of zebrafish larvae. Larval behavior was assessed with an automated video tracking system following acute exposure to each phytochemical sample. Stereotypical basal activity patterns of larvae were assessed to determine the concentration dependent effect of each compound. A zebrafish model of thigmotaxis in large well plates (24-12 well plates) was assessed for their efficacy in testing the phytochemicals. In the discovery method, fertilized eggs were kept on a re-circulating system in baskets until use at 120 hpf (5 days). At 120 hpf, larvae were loaded into 48 well plates in buffered fish media and acclimated to the plate in a heated light incubator for 2 hours. Larvae were acutely exposed with drug or controls at a 10× concentration and the plate was quickly transferred to a behavioral tracking system. Acute behavioral run was 90 minutes (baseline activity) in the light followed by alternating 5 minute bins (total 2 hours). […]

[2] = test system: zebrafish larvae; assay: Baseline activity / baseline exposure (90 min continuous light), zebrafish larvae; design: key to Baseline Exposure: +: statistically significant increase; −−: statistically significant decrease
Experimental: as §1, §2, §3

[3] = test system: zebrafish larvae; assay: Zebrafish models of stress and anxiety, overall verdict (Light/Dark Stress Response and thigmotaxis); details: for Anti-Anxiety Potential?: API used singly
Experimental: as §1
Additionally, testing is done with mixtures of these same selected phytochemicals from P. methysticum and other plants selected by our in silico analyses. The testing results are analyzed using artificial intelligence systems to rank effectiveness in reducing the Light/Dark response and thigmotactic behavior for the
The A1 enabled drug discovery platform database search data was evaluated to select the best drug candidates from: A Piper methysticum, B. within the Piper plant family (>200 Piper spp.), or C. traditional medicines to begin testing […] (API) singles, doubles, and triples in two complementary zebrafish models of anxiety light/dark startle response testing and thigmotaxis assays.
as §2
The discovery methods of the present invention include testing the effects of up to 20 phytochemicals and 40 mixtures of the phytochemicals on behavioral stress response patterns of zebrafish larvae. Larval behavior was assessed with an automated video tracking system following acute exposure to each phytochemical sample. […]

[4] = test system: zebrafish larvae; assay: Thigmotaxis assay; design: key: +: statistically significant increase; −−: statistically significant decrease
Experimental: as §1, §2, §3

| Compound | Light/Dark Stress Response ([1]; High) | Light/Dark Stress Response ([1]; Low) | Light/Dark Stress Response (5 min light/dark pulses) ([1]; vehicle 1% MeOH) | Baseline Exposure ([2]; High) | Baseline Exposure ([2]; Low) | Baseline Exposure ([2]; Med) | baseline Activity (90 min light) ([2]; vehicle 1% MeOH) | Anti-Anxiety Potential? [3] | Therapeutic Potential ([3]; vehicle 1% MeOH) | Light/Dark Stress Response ([1]; Med) | Thigmotaxis Model ([4]; High) | Light/Dark Stress Response (5 min light/dark pulses) ([1]; vehicle not given) | baseline Activity (90 min light) ([2]; vehicle not given) | Therapeutic Potential ([3]; vehicle not given) | Thigmotaxis Model ([4]; Med) |
| --- | --- | --- | --- | --- | --- | --- | --- | --- | --- | --- | --- | --- | --- | --- | --- |
| C=C1CC/C=C(\C)CC[C@@H]2[C@@H]1CC2(C)C [beta caryophyllene] | −− | + | stress response reduced in highest | + | + | + | baseline activity not like controls; also recorded: (increased at all concentrations); also recorded: conc., but baseline activity is concerning | No | No |  |  |  |  |  |  |
| O=c1cc(-c2ccccc2)oc2cc(O)c(O)c(O)c12 [bacalein] | −− |  | stress response is reduced, but sedation | −− |  | + | baseline activity not like controls; also recorded: (increased at low concentrations,; also recorded: sedating at higher concentrations) | Yes |  | −− |  |  |  |  |  |
| COc1c(O)cc(O)c2c(=O)cc(-c3ccccc3)oc12 [Wogonin (hydrate), wogonin] |  |  | no reduction in stress response | + |  | + | baseline activity not like controls; also recorded: (increased at med/high | No | No |  |  |  |  |  |  |
| C=CCc1ccc(OC)cc1 [methyl chavicol (4-allylanisole), 4-allylanisole] | + |  | no reduction in stress response, some | −− |  | −− | baseline activity not like controls; also recorded: (decreased at high concentrations) | No | No |  |  |  |  |  |  |
| C=C(C)[C@@H]1CCC(C)=C[C@H]1c1c(O)cc(CCCCC)cc1O [cannabidiol (CBD), cannabidiol, reference compound] | −− | + | stress response is reduced | −− | + | −− | baseline activity not like controls; also recorded: (increased at low concentrations,; also recorded: sedating at higher concentrations) | Yes |  | −− | −− |  |  |  |  |
| CCCCCCCCCCCCCCCC(=O)NCCO [N-palmitoyl ethanolamide (PEA), N-palmitoyl ethanolamide] | + |  |  |  |  | + |  | No |  | + |  | stress response sometimes increased | baseline activity not like controls; also recorded: (increased at all concentrations) | No |  |
| COc1cc(/C=C/C(=O)N2CCC=CC2=O)cc(OC)c1OC [piperlongumine] | −− | + | stress response is reduced |  |  | + | baseline activity not like controls; also recorded: (increased at low concentrations,; also recorded: sedating at higher concentrations) | Yes |  |  | −− |  |  |  | −− |
| farnesene | −− |  | no reduction in stress response | + |  | + |  | Yes | No |  |  |  |  |  |  |
